This is an account of results in patent US6358921B1, “Antimicrobial peptide compositions and method” (priority 1996, dated 2002).

Like-named read-outs stand apart in the source and are kept apart here.

One series relates to C. Albicans. Type of series: cell-based, Candida albicans. The method, boiled down:
(§1)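 Antimicrobial activity is measured by a liquid-broth assay in LB at 37 °C overnight, starting from 5×10^5 CFU/mL. Values are minimal inhibitory concentrations, i.e. the lowest concentration that stops growth.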

The next series relates to P. aeruginosa H187. Type of series: cell-based, Pseudomonas aeruginosa. The method, boiled down: (§2)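 Minimum inhibitory concentrations come from a broth rather than agar assay, using LB medium, a final inoculum of 5×10^5 CFU/mL and overnight incubation at 37 °C. Values are in μg/ml.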
The next series has as its system S. typhinurium C587. Type of series: cell-based, Salmonella typhinurium. Summed up:
as §1

In a further series the test system is S. typhinurium C610. Type of series: cell-based, Salmonella typhinurium. Summed up: as §1
A further series deals with E. faecalis. Type of series: cell-based, Enterococcus faecalis. The method, boiled down:
as §1

For the next series, the system named is S. aureus K147. Type of series: cell-based, Staphylococcus aureus. The method, boiled down: (§3)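 MIC read-out, μg/ml, lowest peptide concentration with no growth after overnight incubation at 37 °C in LB liquid broth. Inoculum 5×10^5 CFU/mL from overnight cultures. Therapeutic index = concentration giving complete blood-cell lysis at 4 h divided by MIC.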
The test system of another series is S. aureus SAP0017. Type of series: cell-based, Staphylococcus aureus. The method, boiled down:
as §3

Series [1] in a line: Displacement of dansyl-polymyxin from LPS. Type of series: binding, P. aeruginosa. Conditions: read-out: LPS binding affinity: peptide concentration to displace 50% of dansyl-polymyxin B from LPS; Tables 1, 4, 7. Summed up: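 Peptides titrated into 3 μg/mL P. aeruginosa LPS with 2.5 μM dansyl-polymyxin (~90% site saturation) in 5 mM sodium HEPES, pH 7.0; fluorescence decrease recorded. I50 (50% probe displacement) taken from the x-intercept of a double-reciprocal plot of percent inhibition versus inhibitor concentration.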

In another series the test system is human erythrocytes. Kind of series: Hemolytic activity. Type of series: cell-based. The method, then: Serial dilutions of the peptides in saline were prepared in round bottom microtitre plates using 100 μL volumes. Red blood cells were diluted with saline to 1/25 packed volume of cells and 50 μL added to each well. Plates were incubated with rocking at 37° C., and the concentration required for complete lysis determined visually after 4 h.

Another series deals with C. xeroses. Type of series: cell-based, Corynebacterium xerosis. Summed up: as §1
For the next series, the system named is B. subtilis. Type of series: cell-based, Bacillus subtilis. The method, boiled down:
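Liquid-broth microdilution: overnight LB cultures diluted and added to serial peptide dilutions at final 5×10^5 CFU/mL, incubated overnight at 37 °C. MIC is the lowest concentration inhibiting growth; C. albicans a clinical isolate, S. epidermidis clinical, C. xerosis environmental.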

For the next series, the system named is S. epidermidis. Type of series: cell-based, Staphylococcus epidermidis. Summed up: as §1
The next series relates to E. coli DC2. Type of series: cell-based, Escherichia coli. Conditions: DC2. The method, boiled down:
as §2

A further series has as its system P. aeruginosa H188. Type of series: cell-based, Pseudomonas aeruginosa. The method, boiled down:
as §1

The next series relates to E. coli UB1005. Type of series: cell-based, Escherichia coli. Particulars: UB1005. Summed up: as §1

Take `CC(C)C[C@@H]1NC(=O)[C@H](CCCCN)NC(=O)[C@H](C)NC(=O)[C@@H]2CCCN2C(=O)[C@@H](Cc2ccc(O)cc2)NC(=O)[C@H](CC(C)C)NC(=O)[C@H](CCCCN)NC(=O)[C@H](C)NC(=O)[C@H](CCCCN)NC(=O)[C@H](CC(C)C)NC(=O)[C@@H]2CCCN2C(=O)[C@@H](Cc2ccc(O)cc2)NC(=O)[C@H](C)NC(=O)[C@@H](CCCCN)NC1=O` [V3/A3]: the “Minimum Inhibitory Concentration (activity)” value in the series with C. Albicans was 50 µg/mL; in the series on P. aeruginosa H187 (H187), 75 µg/mL; in the series on S. typhinurium C587, 35 µg/mL; in the series on S. typhinurium C610, 62 µg/mL; in the series with E. faecalis, over 200 µg/mL; with S. aureus K147, over 200 µg/mL. For the same compound, the “Minimum Inhibitory Concentration (activity)” value with S. aureus SAP0017 is over 200 µg/mL; with C. xeroses it was 3.1 µg/mL; in the series on B. subtilis it was over 200 µg/mL; in the series with S. epidermidis, 50 µg/mL; in the series on E. coli DC2, 9 µg/mL; in the series with P. aeruginosa H188 (H188), 18 µg/mL. Further, in the series with E. coli UB1005, the “Minimum Inhibitory Concentration (activity)” value worked out at 12.5 µg/mL. For the same compound, the IC50 in series [1] worked out at 163 µM. The “Hemolytic activity: peptide concentration for 100% lysis of human erythrocytes” value in the series with human erythrocytes is over 800 µg/mL.
Regarding `CC(C)C[C@@H]1NC(=O)[C@H](CCCCN)NC(=O)[C@H](C(C)C)NC(=O)[C@@H]2CCCN2C(=O)[C@@H](Cc2ccc(O)cc2)NC(=O)[C@H](CCCCN)NC(=O)[C@H](CC(C)C)NC(=O)[C@H](C(C)C)NC(=O)[C@H](CCCCN)NC(=O)[C@H](CC(C)C)NC(=O)[C@@H]2CCCN2C(=O)[C@@H](Cc2ccc(O)cc2)NC(=O)[C@H](CCCCN)NC(=O)[C@H](C(C)C)NC1=O` [GS14na], the “Minimum Inhibitory Concentration (activity)” value was 100 µg/mL in the series on C. Albicans (C. Albicans); 75 µg/mL in the series on P. aeruginosa H187 (P. aeruginosa H187); 100 µg/mL in the series with S. typhinurium C587; 12.5 µg/mL in the series with S. typhinurium C610; 200 µg/mL in the series with E. faecalis (E. faecalis); over 200 µg/mL in the series on S. aureus K147. Also, the “Minimum Inhibitory Concentration (activity)” value is 200 µg/mL in the series on S. aureus SAP0017; 1.5 µg/mL with C. xeroses (C. xeroses); over 200 µg/mL with B. subtilis (B. subtilis); 50 µg/mL in the series on S. epidermidis (S. epidermidis); 62 µg/mL with E. coli DC2; 18 µg/mL in the series on P. aeruginosa H188 (P. aeruginosa H188). Further, the “Minimum Inhibitory Concentration (activity)” value in the series on E. coli UB1005 stood at 37 µg/mL. Also, the “Hemolytic activity: peptide concentration for 100% lysis of human erythrocytes” value in the series on human erythrocytes is over 800 µg/mL.
As to `CC(C)C[C@@H]1NC(=O)[C@H](CCCCN)NC(=O)[C@H](C(C)C)NC(=O)[C@H](CCCCN)NC(=O)[C@H](CC(C)C)NC(=O)[C@@H]2CCCN2C(=O)[C@@H](Cc2ccc(O)cc2)NC(=O)[C@H](C(C)C)NC(=O)[C@H](CCCCN)NC(=O)[C@@H](CC(C)C)NC(=O)[C@H](CCCCN)NC(=O)[C@H](C(C)C)NC(=O)[C@@H]2CCCN2C(=O)[C@@H](Cc2ccc(O)cc2)NC1=O` [GS14L3], the “Minimum Inhibitory Concentration (activity)” value with C. Albicans was 100 µg/mL; with P. aeruginosa H187 (H187), over 200 µg/mL; in the series on S. typhinurium C587, over 200 µg/mL; in the series on S. typhinurium C610, over 200 µg/mL; with E. faecalis it was 0.8 µg/mL; in the series on S. aureus K147 it was over 200 µg/mL. Also, the “Minimum Inhibitory Concentration (activity)” value in the series with S. aureus SAP0017 is 200 µg/mL; with C. xeroses it was 0.8 µg/mL; in the series on B. subtilis, over 200 µg/mL; with S. epidermidis, 50 µg/mL; with E. coli DC2, 50 µg/mL; in the series on P. aeruginosa H188 (H188) it was 200 µg/mL. The “Minimum Inhibitory Concentration (activity)” value with E. coli UB1005 stood at 200 µg/mL. In series [1], the IC50 was 35 µM.
Turning to `CC(C)C[C@@H]1NC(=O)[C@H](CCCCN)NC(=O)[C@H](C(C)C)NC(=O)[C@H](CCCCN)NC(=O)[C@@H]2CCCN2C(=O)[C@@H](Cc2ccc(O)cc2)NC(=O)[C@H](CCCCN)NC(=O)[C@H](CC(C)C)NC(=O)[C@H](CCCCN)NC(=O)[C@@H](C(C)C)NC(=O)[C@H](CCCCN)NC(=O)[C@@H]2CCCN2C(=O)[C@@H](Cc2ccc(O)cc2)NC(=O)[C@H](CCCCN)NC1=O` [GS14invV2], the “Minimum Inhibitory Concentration (activity)” value in the series with C. Albicans is 200 µg/mL; in the series with P. aeruginosa H187 (H187) it was 9 µg/mL; in the series with S. typhinurium C587, 200 µg/mL; with S. typhinurium C610, 37 µg/mL; in the series with E. faecalis, over 200 µg/mL; in the series on S. aureus K147, over 200 µg/mL. Also, the “Minimum Inhibitory Concentration (activity)” value in the series on C. xeroses was 6.2 µg/mL; with B. subtilis it was over 200 µg/mL; in the series on S. epidermidis, 100 µg/mL; with E. coli DC2, 50 µg/mL; in the series with P. aeruginosa H188 (H188), 9 µg/mL; with E. coli UB1005, 25 µg/mL. For the same compound, the IC50 in series [1] worked out at 71 µM. Besides, the “Hemolytic activity: peptide concentration for 100% lysis of human erythrocytes” value in the series on human erythrocytes stood at 800 µg/mL.
For the compound `CC(C)C[C@@H]1NC(=O)[C@H](CCCCN)NC(=O)[C@@H](C(C)C)NC(=O)[C@@H]2CCCN2C(=O)[C@@H](Cc2ccc(O)cc2)NC(=O)[C@H](CC(C)C)NC(=O)[C@H](CCCCN)NC(=O)[C@H](C(C)C)NC(=O)[C@H](CCCCN)NC(=O)[C@H](CC(C)C)NC(=O)[C@@H]2CCCN2C(=O)[C@@H](Cc2ccc(O)cc2)NC(=O)[C@H](C(C)C)NC(=O)[C@H](CCCCN)NC1=O` [GS14V1], the “Minimum Inhibitory Concentration (activity)” value was 5 µg/mL in the series with C. Albicans; 60 µg/mL with P. aeruginosa H187 (H187); 50 µg/mL in the series on S. typhinurium C587; 6.2 µg/mL in the series with S. typhinurium C610; 1.5 µg/mL with E. faecalis; 100 µg/mL in the series on S. aureus K147. Also, the “Minimum Inhibitory Concentration (activity)” value in the series on S. aureus SAP0017 was determined as 50 µg/mL; with C. xeroses, 1.5 µg/mL; in the series with B. subtilis, 50 µg/mL; in the series with S. epidermidis it was 3.1 µg/mL; in the series on E. coli DC2 it was 3.1 µg/mL; with P. aeruginosa H188 (H188) it was 3.1 µg/mL. The “Minimum Inhibitory Concentration (activity)” value in the series on E. coli UB1005 came out at 6.2 µg/mL. Further, the IC50 in [1] came to 41 µM.
`CC(C)C[C@@H]1NC(=O)[C@H](CCCCN)NC(=O)[C@H](C(C)C)NC(=O)[C@H]2CCCN2C(=O)[C@@H](Cc2ccc(O)cc2)NC(=O)[C@H](CC(C)C)NC(=O)[C@H](CCCCN)NC(=O)[C@H](C(C)C)NC(=O)[C@H](CCCCN)NC(=O)[C@H](CC(C)C)NC(=O)[C@@H]2CCCN2C(=O)[C@@H](Cc2ccc(O)cc2)NC(=O)[C@H](C(C)C)NC(=O)[C@H](CCCCN)NC1=O` [GS14P14]: the “Minimum Inhibitory Concentration (activity)” value in the series on C. Albicans is 25 µg/mL; in the series with P. aeruginosa H187 (H187), over 200 µg/mL; in the series on S. typhinurium C587, over 200 µg/mL; in the series with S. typhinurium C610 it was over 200 µg/mL; with E. faecalis, 6.2 µg/mL; with S. aureus K147 it was over 200 µg/mL. The “Minimum Inhibitory Concentration (activity)” value with S. aureus SAP0017 was over 200 µg/mL; in the series on C. xeroses it was 1 µg/mL; with B. subtilis, over 200 µg/mL; in the series with S. epidermidis, 6.2 µg/mL; in the series with E. coli DC2 it was 4 µg/mL; with P. aeruginosa H188 (H188) it was 100 µg/mL. Also, the “Minimum Inhibitory Concentration (activity)” value with E. coli UB1005 was determined as 100 µg/mL. Further, the IC50 in series [1] turned out to be 20 µM.
